Like-named read-outs stand apart in the source and are kept apart here.
Experiments:
[1] = biological target: T1, RORγ ligand binding domain (LBD) (Homo sapiens, UniProt P51449); experiment: TR-FRET Activity Assay (ligand sensing, RORγ-LBD / coactivator peptide interaction, LANCE); type: biochemical
T1 construct: made in house; host or cells: E. coli BL-21 (BL3), vector pDEST15
T1 sequence (P51449 269-508 limits assumed): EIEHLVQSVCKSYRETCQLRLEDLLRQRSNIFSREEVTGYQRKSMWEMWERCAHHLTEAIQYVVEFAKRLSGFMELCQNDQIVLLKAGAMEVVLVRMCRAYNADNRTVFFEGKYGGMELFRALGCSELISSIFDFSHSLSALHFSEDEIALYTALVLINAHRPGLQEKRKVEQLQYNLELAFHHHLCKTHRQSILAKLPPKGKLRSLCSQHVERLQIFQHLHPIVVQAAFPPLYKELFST

RORγ = biological target: T2, RORγ (UniProt P51449); experiment: RORγ Gal4 Reporter Gene Assay in 293T cells (firefly and renilla luciferase); type: cell-based, human
T2 sequence (P51449 1-518): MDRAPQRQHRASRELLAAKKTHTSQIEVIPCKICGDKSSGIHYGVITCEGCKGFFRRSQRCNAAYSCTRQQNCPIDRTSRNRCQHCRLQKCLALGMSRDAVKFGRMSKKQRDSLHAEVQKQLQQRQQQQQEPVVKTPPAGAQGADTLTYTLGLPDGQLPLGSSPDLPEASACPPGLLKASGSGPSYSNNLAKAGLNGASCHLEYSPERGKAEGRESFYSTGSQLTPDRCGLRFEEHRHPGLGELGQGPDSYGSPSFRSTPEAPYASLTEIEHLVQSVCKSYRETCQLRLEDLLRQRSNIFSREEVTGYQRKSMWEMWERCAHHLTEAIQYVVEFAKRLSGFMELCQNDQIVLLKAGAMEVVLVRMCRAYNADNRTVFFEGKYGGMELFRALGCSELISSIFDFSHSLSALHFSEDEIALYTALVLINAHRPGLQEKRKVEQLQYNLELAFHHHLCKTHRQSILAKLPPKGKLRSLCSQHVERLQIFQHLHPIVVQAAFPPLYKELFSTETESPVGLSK

[2] = first value of the cell FRET/FF/REN, TR-FRET activity assay, read-out: pIC50 (FRET) (converted)
[3] = second value of the cell, Gal4 reporter gene assay in 293T cells, firefly luciferase
[4] = third value of the cell, Gal4 reporter gene assay in 293T cells, renilla normalised luciferase

Row | IC50 [1, 2] [nM] | pIC50 (FF) (RORγ; [3]) | pIC50 (REN) (RORγ; [4]) | SMILES | IC50 [1] [nM] | pIC50 (FF) (RORγ) | pIC50 (REN) (RORγ)
1 | – | – | – | Cc1c(C(=O)NCC2(C)COC2)cc(-c2cc(C(C)(C)C)cc(C(C)(C)C)c2)n1CC1CCCCC1 [1/2] | 126 | 6.9/7.5/7.4 | 6.9/7.5/7.4
2 | – | – | – | Cc1c(C(=O)NCC(C)(C)C(N)=O)cc(-c2cc(C(C)(C)C)cc(C(C)(C)C)c2)n1CC1CCCCC1 [1/3] | 398 | 6.4/7.6/7.5 | 6.4/7.6/7.5
3 | – | – | – | Cc1c(C(=O)NCC(C)(C)NS(C)(=O)=O)cc(-c2cc(C(C)(C)C)cc(C(C)(C)C)c2)n1CC1CCCCC1 [1/4] | 316 | 6.5/7.5/7.6 | 6.5/7.5/7.6
4 | – | – | – | Cc1c(C(=O)NCC(=O)N(C)C)cc(-c2cc(C(C)(C)C)cc(C(C)(C)C)c2)n1CC1CCCCC1 [1/6] | 631 | 6.2/6.7/6.7 | 6.2/6.7/6.7
5 | – | – | – | COC1CN(C(=O)c2cc(-c3cc(C(C)(C)C)cc(C(C)(C)C)c3)n(CC3CCCCC3)c2C)C1 [1/8] | 316 | 6.5/6.4/6.3 | 6.5/6.4/6.3
6 | – | – | – | Cc1c(C(=O)NCCS(N)(=O)=O)cc(-c2cc(C(C)(C)C)cc(C(C)(C)C)c2)n1CC1CCCCC1 [1/9] | 316 | 6.5/6.6/6.7 | 6.5/6.6/6.7
7 | – | – | – | Cc1c(C(=O)NCC2CCOCC2)cc(-c2ccc(S(=O)(=O)NC(C)(C)C)c(C(C)(C)C)c2)n1CC1CCCCC1 [1/10] | 501 | 6.3/7.5/7.5 | 6.3/7.5/7.5
8 | 2000 | 6.1 | 6.1 | Cc1c(C(=O)NCCN2CCOCC2)cc(-c2ccc(S(=O)(=O)NC(C)(C)C)c(C(C)(C)C)c2)n1CC1CCCCC1 [1/11] | – | – | –
9 | 1260 | 6.4 | 6.5 | Cc1c(C(=O)NC2(C#N)CC2)cc(-c2cc(C(C)(C)C)cc(C(C)(C)C)c2)n1CC1CCCCC1 [1/12] | – | – | –
10 | 1260 | 6.2 | 6.1 | Cc1c(C(N)=O)cc(-c2ccc(S(=O)(=O)NC(C)(C)C)c(C(C)(C)C)c2)n1CC1CCCCC1 [1/13] | – | – | –
11 | – | – | – | Cc1c(C(=O)NC2CSC2)cc(-c2cc(C(C)(C)C)cc(C(C)(C)C)c2)n1CC1CCCCC1 [1/14] | 2000 | 5.7/6.5/6.6 | 5.7/6.5/6.6
12 | 3160 | 5.5/5.5/5.5 | 5.5/5.5/5.5 | Cc1c(C(=O)NC2CN(C(=O)OC(C)(C)C)C2)cc(-c2cc(C(C)(C)C)cc(C(C)(C)C)c2)n1CC1CCCCC1 [1/15] | – | – | –
13 | 6310 | 6.1 | 5.8 | Cc1c(C(=O)NC2COC2)cc(-c2cc(OCC(C)(C)C)nc(C(F)(F)F)c2)n1CC1CCCCC1 [1/16] | – | – | –
14 | 631 | 7.1 | 7.0 | Cc1c(C(=O)NC2COC2)cc(-c2cc(C(C)(C)C)c3c(c2)C(C)(C)CC(=O)N3)n1CC1CCCCC1 [1/18] | – | – | –
15 | 1000 | 6.9 | 6.9 | Cc1c(C(=O)NC2COC2)cc(-c2cc(C(C)C)c3c(c2)C(C)(C)N(C(C)C)S3(=O)=O)n1CC1CCCCC1 [1/22] | – | – | –
16 | – | – | – | COCOc1ccc(-c2cc(C(=O)NC3COC3)c(C)n2CC2CCCCC2)cc1C(C)(C)C [1/24] | 631 | – | –
17 | – | – | – | CC(C)(O)CNC(=O)c1cc(-c2ccc(S(=O)(=O)NC(C)(C)C)c(C(C)(C)C)c2)n(CC2CCCCC2)c1C(F)(F)F [1/26] | 10000 | 5.0/<4.7/<4.7 | 5.0/<4.7/<4.7
18 | 794 | 6.7 | 6.8 | COCc1c(C(=O)NCC(C)(C)O)cc(-c2ccc(S(=O)(=O)NC(C)(C)C)c(C(C)(C)C)c2)n1CC1CCCCC1 [1/28] | – | – | –
19 | – | – | – | COCc1c(C(=O)NC2CCOCC2)cc(-c2ccc(S(=O)(=O)NC(C)(C)C)c(C(C)(C)C)c2)n1CC1CCCCC1 [1/29] | 631 | 6.2/7.2/7.2 | 6.2/7.2/7.2

Row | IC50 [1, 2] [nM] | pIC50 (FF) (RORγ; [3]) | pIC50 (REN) (RORγ; [4]) | SMILES | IC50 [1] [nM] | pIC50 (FF) (RORγ) | pIC50 (REN) (RORγ)
20 | 3980 | 6.4 | 6.2 | Cc1c(C(=O)NC2COC2)cc(-c2ccc(C(=O)NC(C)(C)C)c(C(C)(C)C)c2)n1CC1CCCCC1 [1/30] | – | – | –
21 | 2000 | 6.4 | 6.4 | Cc1c(C(=O)NC2COC2)cc(-c2ccc(C(=O)N(C)C(C)(C)C)c(C(C)(C)C)c2)n1CC1CCCCC1 [1/31] | – | – | –
22 | 1580 | 6.4 | 6.2 | Cc1c(C(=O)NC2COC2)cc(-c2ccc(C(=O)NCC(C)(C)C)c(C(C)(C)C)c2)n1CC1CCCCC1 [1/32] | – | – | –
23 | 794 | 6.6 | 6.5 | Cc1c(C(=O)NC2COC2)cc(-c2ccc(C(=O)N(C)CC(C)(C)C)c(C(C)(C)C)c2)n1CC1CCCCC1 [1/33] | – | – | –
24 | 1260 | 6.8 | 6.7 | Cc1c(C(=O)NC2COC2)cc(-c2ccc(C(=O)N3CCCCC3)c(C(C)(C)C)c2)n1CC1CCCCC1 [1/34] | – | – | –
25 | – | – | – | COC(C)(C)CNC(=O)c1cc(-c2cc(C(C)(C)C)cc(C(C)(C)C)c2)n(CC2CCCCC2)c1C [1/35] | 126 | 6.9/6.9/6.9 | 6.9/6.9/6.9
26 | – | – | – | Cc1c(C(=O)NC(C)C(C)(C)O)cc(-c2cc(C(C)(C)C)cc(C(C)(C)C)c2)n1CC1CCCCC1 (centres unmarked) [1/36] | 158 | 6.8/6.5/6.6 | 6.8/6.5/6.6
27 | – | – | – | Cc1c(C(=O)NCC(C)(C)O)cc(-c2cc(C(C)(C)C)c3c(c2)C2(CCO3)CC2)n1CC1CCCCC1 [1/39] | 316 | 6.5/6.9/7.0 | 6.5/6.9/7.0
28 | – | – | – | Cc1c(C(=O)NCCCCCO)cc(-c2cc(C(C)(C)C)c3c(c2)C2(CCO3)CC2)n1CC1CCCCC1 [1/40] | 251 | 6.6/7.5/7.6 | 6.6/7.5/7.6
29 | – | – | – | Cc1c(C(=O)NCCN2CCOCC2)cc(-c2cc(C(C)(C)C)c3c(c2)C2(CCO3)CC2)n1CC1CCCCC1 [1/41] | 501 | 6.3/6.9/7.0 | 6.3/6.9/7.0
30 | – | – | – | COC(C)(C)c1cc(-c2cc(C(=O)NC3COC3)c(C)n2CC2CCCCC2)cc(C(C)(C)C)c1 [1/107] | 794 | – | –
31 | – | – | – | Cc1c(C(=O)NCC(C)(C)O)cc(-c2cc(C(=O)N(C)C(C)(C)C)cc(C(C)(C)C)c2)n1CC1CCCCC1 [15/7] | 1260 | – | –
32 | – | – | – | Cc1c(C(=O)NCCCNS(C)(=O)=O)cc(-c2cc(C(C)(C)C)c3c(c2)C2(CCO3)CC2)n1CC1CCCCC1 [17/3] | 398 | – | –
33 | – | – | – | Cc1c(C(=O)NCC2CNCCO2)cc(-c2cc(C(C)(C)C)c3c(c2)C2(CCO3)CC2)n1CC1CCCCC1.Cl (centres unmarked) [17/7] | – | 5.5/<4.7/<4.7 | 5.5/<4.7/<4.7
34 | – | – | – | Cc1c(C(=O)NCC(C)(C)N)cc(-c2cc(C(C)(C)C)c3c(c2)C2(CCO3)CC2)n1CC1CCCCC1.Cl [17/27] | – | 5.6/6.3/6.5 | 5.6/6.3/6.5
35 | – | – | – | Cc1c(C(=O)NC2(C(=O)O)CC2)cc(-c2cc(C(C)(C)C)c3c(c2)C2(CCO3)CC2)n1CC1CCCCC1 [17/50] | 3160 | – | –
36 | – | – | – | Cc1c(C(=O)N2CCS(=O)(=O)CC2)cc(-c2ccc(S(=O)(=O)NC(C)(C)C)c(C(C)(C)C)c2)n1CC1CCCCC1 [17/100] | 794 | – | –
37 | – | – | – | Cc1c(C(=O)N[C@H]2C[C@](C)(C(=O)O)C2)cc(-c2cc(C(C)(C)C)cc(C3(C)CC3)c2)n1CC1CCCCC1 [17/171] | 794 | – | –

Row | SMILES | IC50 [1, 2] [nM] | pIC50 (FF) (RORγ; [3]) | pIC50 (REN) (RORγ; [4]) | IC50 [1] [nM] | pIC50 (FF) (RORγ) | pIC50 (REN) (RORγ)
38 | Cc1c(C(=O)NCCS(C)(=O)=O)cc(-c2cc(C(C)(C)C)cc(C(C)(C)C)c2)n1CC1CCCCC1 [1/1] | 251 | 6.6 | 6.7 | – | – | –
39 | Cc1c(C(=O)NCC(N)=O)cc(-c2cc(C(C)(C)C)cc(C(C)(C)C)c2)n1CC1CCCCC1 [1/5] | 1000 | 6.3 | 6.2 | – | – | –
40 | Cc1c(C(=O)N2CC(O)C2)cc(-c2cc(C(C)(C)C)cc(C(C)(C)C)c2)n1CC1CCCCC1 [1/7] | 501 | 6.8 | 6.8 | – | – | –
41 | Cc1c(C(=O)NC2COC2)cc(-c2cc(C(C)(C)C)c3c(c2)C(C)(C)CC(=O)N3C)n1CC1CCCCC1 [1/19] | 1000 | 7.0 | 7.1 | – | – | –
42 | CC(C)(C)NS(=O)(=O)c1ccc(-c2cc(C(=O)NCC3(O)CCOCC3)c(C(F)(F)F)n2CC2CCCCC2)cc1C(C)(C)C [1/27] | 12600 | < 4.7 | < 4.7 | – | – | –
43 | Cc1c(C(=O)N2CCC(C)(O)CC2)cc(-c2cc(C(C)(C)C)cc(C(C)(C)C)c2)n1CC1CCCCC1 [1/37] | 316 | 6.8 | 6.8 | – | – | –
44 | Cc1c(C(=O)NC2COC2)cc(-c2cc(C(C)(C)C)c3c(c2)C2(CCO3)CC2)n1CC1CCCCC1 [1/38] | 251 | 7.2 | 7.3 | – | – | –
45 | Cc1c(C(=O)NC2COC2)cc(-c2cc(C3(C)CC3)c3c(c2)C2(CCO3)CC2)n1CC1CCCCC1 [1/42] | 251 | 7.5 | 7.6 | – | – | –

Source: patent US9815851B2, “Pyrrolo carboxamides as modulators of orphan nuclear receptor RAR-related orphan receptor-gamma (RORγ, NR1F3) activity and for the treatment of chronic inflammatory and autoimmune diseases” (PHENEX PHARMACEUTICALS AG, priority 2011, dated 2017)
